Positions of bridges follow the written chain, without caps; N, C: chain ends. Non-standard residues stand in square brackets, D forms with d. Residues, ends and D or L forms follow the SMILES beside them. Ala(morpholin-4-yl) = N[C@@H](CN1CCOCC1)C(=O)O; Bip = N[C@@H](Cc1ccc(-c2ccccc2)cc1)C(=O)O; Phe(3-OMe) = COc1cccc(C[C@H](N)C(=O)O)c1; Val(3-OH) = CC(C)(O)[C@H](N)C(=O)O; Hyp = O=C(O)[C@@H]1C[C@@H](O)CN1; Tic = O=C(O)[C@@H]1Cc2ccccc2CN1; Aze = O=C(O)[C@@H]1CCN1; Sar = CNCC(=O)O

In the experiment the target is TNFα (Homo sapiens, UniProt P01375). The experiment can be described thus: TNF-Induced HEK-Blue Assay. The format is cell-based. Conditions: HEK-Blue-CD40L cells, NF-kB-driven secreted alkaline phosphatase reporter; TNFα 0.5 ng/ml; 18 h; read-out: TNF induced HEK-Blue assay IC50 value.
TNFα, sequence (P01375 77-233 limits assumed): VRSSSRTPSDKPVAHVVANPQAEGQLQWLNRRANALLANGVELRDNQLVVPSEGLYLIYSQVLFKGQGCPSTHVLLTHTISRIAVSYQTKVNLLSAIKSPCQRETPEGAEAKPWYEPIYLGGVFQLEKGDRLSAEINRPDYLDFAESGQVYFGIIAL
In the case of `CC(C)C[C@@H]1NC(=O)[C@H](Cc2ccc(O)cc2)NC(=O)[C@H](C(C)C)NC(=O)[C@@H]2CCCN2C(=O)[C@H](C(C)C)NC(=O)[C@@H](CCCNC(=N)N)NC(=O)[C@H](CC(=O)O)NC(=O)[C@H](Cc2ccc(O)cc2)NC(=O)CN(C)C(=O)[C@H](Cc2ccc(-c3ccccc3)cc2)NC(=O)[C@H](Cc2ccc(-c3ccccc3)cc2)NC(=O)[C@H](Cc2ccccc2)NC(=O)CSC[C@@H](C(=O)NCC(N)=O)NC1=O` [Example 62] ({CH2CO}-F[Bip][Bip][Sar]YD[dR]VPVYLCG-NH2; thioether N-13), the IC50 fell in the range of 50 to 200 nM.

With `COc1cccc(C[C@@H]2NC(=O)[C@H](C(C)C)NC(=O)[C@@H]3CCCN3C(=O)[C@H](C(C)C)NC(=O)[C@H](CCCNC(=N)N)NC(=O)[C@H](CC(=O)O)NC(=O)[C@@H]3CCCN3C(=O)CN(C)C(=O)[C@H](Cc3ccc(-c4ccccc4)cc3)NC(=O)[C@H](Cc3ccc(-c4ccccc4)cc3)NC(=O)[C@H](Cc3ccccc3)NC(=O)CSC[C@@H](C(=O)NCC(N)=O)NC(=O)[C@H](CC(C)C)NC2=O)c1` [Example 63] ({CH2CO}-F[Bip][Bip][Sar]PDRVPV[Phe(3-OMe)]LCG-NH2; thioether N-13), the IC50 fell in the range of 200 to 2000 nM.

With `CC(C)C[C@@H]1NC(=O)[C@H](Cc2ccc(O)cc2)NC(=O)[C@H](C(C)C)NC(=O)[C@@H]2CCCN2C(=O)[C@H](C(C)C)NC(=O)[C@H](CCCNC(=N)N)NC(=O)[C@H](CC(=O)O)NC(=O)[C@@H]2CCCN2C(=O)CN(C)C(=O)[C@H](Cc2ccc(-c3ccccc3)cc2)NC(=O)[C@H](Cc2ccc(-c3ccccc3)cc2)NC(=O)[C@H](C(C)(C)O)NC(=O)CSC[C@@H](C(=O)NCC(N)=O)NC1=O` [Example 64] ({CH2CO}-[Val(3-OH)][Bip][Bip][Sar]PDRVPVYLCG-NH2; thioether N-13), the IC50 lay in the range of 200 to 2000 nM.

Take `CC(C)C[C@@H]1NC(=O)[C@H](CCCNC(=N)N)NC(=O)[C@H](C(C)C)NC(=O)[C@@H]2CCCN2C(=O)[C@H](C(C)C)NC(=O)[C@H](CCCNC(=N)N)NC(=O)[C@H](CC(=O)O)NC(=O)[C@H](Cc2ccc(O)cc2)NC(=O)CN(C)C(=O)[C@H](Cc2ccc(-c3ccccc3)cc2)NC(=O)[C@H](Cc2ccc(-c3ccccc3)cc2)NC(=O)[C@H](C(C)(C)O)NC(=O)CSC[C@@H](C(=O)NCC(N)=O)NC1=O` [Example 65] ({CH2CO}-[Val(3-OH)][Bip][Bip][Sar]YDRVPVRLCG-NH2; thioether N-13): the IC50 lay in the range of 50 to 200 nM.

In the case of `CC(C)C[C@@H]1NC(=O)[C@H](CCCNC(=N)N)NC(=O)[C@H](C(C)C)NC(=O)[C@@H]2CCCN2C(=O)[C@H](CC(N)=O)NC(=O)[C@H](CCCNC(=N)N)NC(=O)[C@H](CC(=O)O)NC(=O)[C@@H]2CCCN2C(=O)CN(C)C(=O)[C@H](Cc2ccc(-c3ccccc3)cc2)NC(=O)[C@H](Cc2ccc(-c3ccccc3)cc2)NC(=O)[C@H](CN2CCOCC2)NC(=O)CSC[C@@H](C(=O)NCC(N)=O)NC1=O` [Example 67] ({CH2CO}-[Ala(morpholin-4-yl)][Bip][Bip][Sar]PDRNPVRLCG-NH2; thioether N-13), the IC50 is 200 to 2000 nM.

`CC(C)C[C@@H]1NC(=O)[C@H](Cc2ccc(O)cc2)NC(=O)[C@H](C(C)C)NC(=O)[C@@H]2CCCN2C(=O)[C@H](C(C)C)NC(=O)[C@@H](CCCNC(=N)N)NC(=O)[C@H](CC(=O)O)NC(=O)[C@H](Cc2ccc(O)cc2)NC(=O)CN(C)C(=O)[C@H](Cc2ccc(-c3ccccc3)cc2)NC(=O)[C@H](Cc2ccc(-c3ccccc3)cc2)NC(=O)[C@H](CN2CCOCC2)NC(=O)CSC[C@@H](C(=O)NCC(N)=O)NC1=O` [Example 68] ({CH2CO}-[Ala(morpholin-4-yl)][Bip][Bip][Sar]YD[dR]VPVYLCG-NH2; thioether N-13): the IC50 is less than 50 nM.

For `CC(C)C[C@@H]1NC(=O)[C@H](Cc2ccc(O)cc2)NC(=O)[C@H](C(C)C)NC(=O)[C@@H]2CCCN2C(=O)[C@H](C(C)C)NC(=O)[C@@H](CCCNC(=N)N)NC(=O)[C@H](CC(=O)O)NC(=O)[C@H](Cc2ccc(O)cc2)NC(=O)CN(C)C(=O)[C@H](Cc2ccc(-c3ccccc3)cc2)NC(=O)[C@H](Cc2ccc(-c3ccccc3)cc2)NC(=O)[C@H](C(C)(C)O)NC(=O)CSC[C@@H](C(=O)NCC(N)=O)NC1=O` [Example 69] ({CH2CO}-[Val(3-OH)][Bip][Bip][Sar]YD[dR]VPVYLCG-NH2; thioether N-13), the IC50 is less than 50 nM.

In the case of `CC(C)C[C@@H]1NC(=O)[C@H](CCCNC(=N)N)NC(=O)[C@H](C(C)C)NC(=O)[C@@H]2C[C@@H](O)CN2C(=O)[C@H](C(C)C)NC(=O)[C@H](CCCNC(=N)N)NC(=O)[C@H](CC(=O)O)NC(=O)[C@@H]2CCCN2C(=O)CN(C)C(=O)[C@H](Cc2ccc(-c3ccccc3)cc2)NC(=O)[C@H](Cc2ccc(-c3ccccc3)cc2)NC(=O)[C@H](CN2CCOCC2)NC(=O)CSC[C@@H](C(=O)NCC(N)=O)NC1=O` [Example 70] ({CH2CO}-[Ala(morpholin-4-yl)][Bip][Bip][Sar]PDRV[Hyp]VRLCG-NH2; thioether N-13), the IC50 was 200 to 2000 nM.

For `CC(C)C[C@@H]1NC(=O)[C@H](CCCNC(=N)N)NC(=O)[C@H](C(C)C)NC(=O)[C@@H]2Cc3ccccc3CN2C(=O)[C@H](C(C)C)NC(=O)[C@H](CCCNC(=N)N)NC(=O)[C@H](CC(=O)O)NC(=O)[C@@H]2CCCN2C(=O)CN(C)C(=O)[C@H](Cc2ccc(-c3ccccc3)cc2)NC(=O)[C@H](Cc2ccc(-c3ccccc3)cc2)NC(=O)[C@H](CN2CCOCC2)NC(=O)CSC[C@@H](C(=O)NCC(N)=O)NC1=O` [Example 71] ({CH2CO}-[Ala(morpholin-4-yl)][Bip][Bip][Sar]PDRV[Tic]VRLCG-NH2; thioether N-13), the IC50 was 50 to 200 nM.

As to `CC(C)C[C@@H]1NC(=O)[C@H](CCCNC(=N)N)NC(=O)[C@H](C(C)C)NC(=O)[C@@H]2CCN2C(=O)[C@H](C(C)C)NC(=O)[C@H](CCCNC(=N)N)NC(=O)[C@H](CC(=O)O)NC(=O)[C@@H]2CCCN2C(=O)CN(C)C(=O)[C@H](Cc2ccc(-c3ccccc3)cc2)NC(=O)[C@H](Cc2ccc(-c3ccccc3)cc2)NC(=O)[C@H](CN2CCOCC2)NC(=O)CSC[C@@H](C(=O)NCC(N)=O)NC1=O` [Example 72] ({CH2CO}-[Ala(morpholin-4-yl)][Bip][Bip][Sar]PDRV[Aze]VRLCG-NH2; thioether N-13), the IC50 fell in the range of 50 to 200 nM.

As for `CC(C)C[C@@H]1NC(=O)[C@H](Cc2ccc(O)cc2)NC(=O)[C@H](C(C)C)NC(=O)[C@@H]2C[C@@H](O)CN2C(=O)[C@H](C(C)C)NC(=O)[C@H](CCCNC(=N)N)NC(=O)[C@H](CC(=O)O)NC(=O)[C@H](Cc2ccc(O)cc2)NC(=O)CN(C)C(=O)[C@H](Cc2ccc(-c3ccccc3)cc2)NC(=O)[C@H](Cc2ccc(-c3ccccc3)cc2)NC(=O)[C@H](CN2CCOCC2)NC(=O)CSC[C@@H](C(=O)NCC(N)=O)NC1=O` [Example 73] ({CH2CO}-[Ala(morpholin-4-yl)][Bip][Bip][Sar]YDRV[Hyp]VYLCG-NH2; thioether N-13), the IC50 was in the range of 200 to 2000 nM.

As for `CC(C)C[C@@H]1NC(=O)[C@H](Cc2ccc(O)cc2)NC(=O)[C@H](C(C)C)NC(=O)[C@@H]2Cc3ccccc3CN2C(=O)[C@H](C(C)C)NC(=O)[C@H](CCCNC(=N)N)NC(=O)[C@H](CC(=O)O)NC(=O)[C@H](Cc2ccc(O)cc2)NC(=O)CN(C)C(=O)[C@H](Cc2ccc(-c3ccccc3)cc2)NC(=O)[C@H](Cc2ccc(-c3ccccc3)cc2)NC(=O)[C@H](CN2CCOCC2)NC(=O)CSC[C@@H](C(=O)NCC(N)=O)NC1=O` [Example 74] ({CH2CO}-[Ala(morpholin-4-yl)][Bip][Bip][Sar]YDRV[Tic]VYLCG-NH2; thioether N-13), the IC50 is 200 to 2000 nM.

`CC(C)C[C@@H]1NC(=O)[C@H](Cc2ccc(O)cc2)NC(=O)[C@H](C(C)C)NC(=O)[C@@H]2CCN2C(=O)[C@H](C(C)C)NC(=O)[C@H](CCCNC(=N)N)NC(=O)[C@H](CC(=O)O)NC(=O)[C@H](Cc2ccc(O)cc2)NC(=O)CN(C)C(=O)[C@H](Cc2ccc(-c3ccccc3)cc2)NC(=O)[C@H](Cc2ccc(-c3ccccc3)cc2)NC(=O)[C@H](CN2CCOCC2)NC(=O)CSC[C@@H](C(=O)NCC(N)=O)NC1=O` [Example 75] ({CH2CO}-[Ala(morpholin-4-yl)][Bip][Bip][Sar]YDRV[Aze]VYLCG-NH2; thioether N-13): the concentration for half-maximal inhibition (IC50) is 200 to 2000 nM.

For `CC(C)C[C@@H]1NC(=O)[C@H](CCCNC(=N)N)NC(=O)[C@H](C(C)C)NC(=O)[C@@H]2CCCN2C(=O)[C@H](C(C)C)NC(=O)[C@@H](CCCNC(=N)N)NC(=O)[C@H](CC(=O)O)NC(=O)[C@H](Cc2ccc(O)cc2)NC(=O)CN(C)C(=O)[C@H](Cc2ccc(-c3ccccc3)cc2)NC(=O)[C@H](Cc2ccc(-c3ccccc3)cc2)NC(=O)[C@H](CN2CCOCC2)NC(=O)CSC[C@@H](C(=O)NCC(N)=O)NC1=O` [Example 76] ({CH2CO}-[Ala(morpholin-4-yl)][Bip][Bip][Sar]YD[dR]VPVRLCG-NH2; thioether N-13), the half-inhibitory concentration (IC50) was less than 50 nM.

On to `CC(C)C[C@@H]1NC(=O)[C@H](Cc2ccc(O)cc2)NC(=O)[C@H](C(C)C)NC(=O)[C@@H]2CCCN2C(=O)[C@H](C(C)C)NC(=O)[C@@H](CCCNC(=N)N)NC(=O)[C@H](CC(=O)O)NC(=O)[C@@H]2CCCN2C(=O)CN(C)C(=O)[C@H](Cc2ccc(-c3ccccc3)cc2)NC(=O)[C@H](Cc2ccc(-c3ccccc3)cc2)NC(=O)[C@H](CN2CCOCC2)NC(=O)CSC[C@@H](C(=O)NCC(N)=O)NC1=O` [Example 77] ({CH2CO}-[Ala(morpholin-4-yl)][Bip][Bip][Sar]PD[dR]VPVYLCG-NH2; thioether N-13), for which the IC50 was in the range of 200 to 2000 nM.

Consider `CC(C)C[C@@H]1NC(=O)[C@H](Cc2ccc(O)cc2)NC(=O)[C@H](C(C)C)NC(=O)[C@@H]2C[C@@H](O)CN2C(=O)[C@H](C(C)C)NC(=O)[C@@H](CCCNC(=N)N)NC(=O)[C@H](CC(=O)O)NC(=O)[C@H](Cc2ccc(O)cc2)NC(=O)CN(C)C(=O)[C@H](Cc2ccc(-c3ccccc3)cc2)NC(=O)[C@H](Cc2ccc(-c3ccccc3)cc2)NC(=O)[C@H](CN2CCOCC2)NC(=O)CSC[C@@H](C(=O)NCC(N)=O)NC1=O` [Example 78] ({CH2CO}-[Ala(morpholin-4-yl)][Bip][Bip][Sar]YD[dR]V[Hyp]VYLCG-NH2; thioether N-13), for which the IC50 is 50 to 200 nM.

These data come from patent US20250145665A1, “MACROCYCLIC PEPTIDES USEFUL AS MODULATORS OF TNF ALPHA” (Bristol-Myers Squibb Company, priority 2023, published 2025).
